# Source: patent publication US11976083B2, “Inhibitors of peptidylarginine deiminases” (Gilead Sciences, Inc., priority 2020, dated 2024)
# Molecular target: T1, human PAD4 (Homo sapiens, UniProt Q9UM07)
# T1 construct: human PAD4 (NM_012387), A2-P663, was PCR amplified; His-SUMO (N, cleaved yes); made in house; host or cells: E. coli BL21(DE3)
# Assay: In vitro PAD4 BAEE biochemical assay
# Conditions: BAEE substrate 3 mM, 5 nM PAD4, 2 mM calcium chloride; geometric mean of multiple experiments
# Method in brief: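 Recombinant PAD4 (5 nM final) with 2 mM CaCl2 was preincubated with compound for 30 min at 25 °C in MOPS pH 7.6 buffer with DTT, then reacted with 3 mM BAEE for 2 h at 25 °C. Released ammonia was detected fluorimetrically with o-phthalaldehyde/DTT; IC50 from four-parameter fit, geometric mean of experiments.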
# T1 sequence (Q9UM07 2-663): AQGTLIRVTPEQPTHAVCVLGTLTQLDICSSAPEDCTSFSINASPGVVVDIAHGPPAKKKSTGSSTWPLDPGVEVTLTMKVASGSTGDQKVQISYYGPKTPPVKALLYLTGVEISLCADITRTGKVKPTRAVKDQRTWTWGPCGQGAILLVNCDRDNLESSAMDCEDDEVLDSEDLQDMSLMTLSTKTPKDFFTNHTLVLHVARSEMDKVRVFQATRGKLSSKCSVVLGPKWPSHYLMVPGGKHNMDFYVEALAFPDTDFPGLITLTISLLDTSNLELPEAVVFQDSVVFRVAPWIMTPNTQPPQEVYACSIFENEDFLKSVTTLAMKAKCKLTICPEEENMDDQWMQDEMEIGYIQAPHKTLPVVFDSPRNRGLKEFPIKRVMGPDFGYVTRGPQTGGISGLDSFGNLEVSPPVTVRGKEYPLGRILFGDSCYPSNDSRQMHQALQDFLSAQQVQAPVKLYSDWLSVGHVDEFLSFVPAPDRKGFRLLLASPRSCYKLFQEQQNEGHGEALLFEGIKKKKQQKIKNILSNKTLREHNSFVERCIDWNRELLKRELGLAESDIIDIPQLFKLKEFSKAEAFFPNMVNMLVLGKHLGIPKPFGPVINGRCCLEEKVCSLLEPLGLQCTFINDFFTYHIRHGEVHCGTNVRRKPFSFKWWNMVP
row,IC50,SMILES
1,41 nM,"COc1cc(C(=O)N2CCC[C@@H](N)C2)cc2nc(-c3cc4ccc5nc4n3C[C@H]3C[C@H]3CCCCC(=O)N[C@@H]5C)n(C)c12 [Example 118, (3~{S},5~{R},12~{R})-18-[5-[(3~{R})-3-aminopiperidine-1-carbonyl]-7-methoxy-1-methyl-benzimidazol-2-yl]-12-methyl-1,11,20-triazatetracyclo[11.5.2.0^{3,5}.0^{16,19}] icosa-13(20),14,16(19),17-tetraen-10-one]"
2,48 nM,"CO[C@@H]1CCN(C(=O)c2cc(F)c3c(c2)nc(-c2cc4ccc5nc4n2CC(F)(F)CCC[C@@H]2C[C@H]2C(=O)N[C@@H]5C)n3C)C[C@@H]1N [Example 738, (2~{R},5~{R},7~{R})-14-[5-[(3~{S},4~{R})-3-amino-4-methoxy-piperidine-1-carbonyl]-7-fluoro-1-methyl-benzimidazol-2-yl]-11,11-difluoro-2-methyl-3,13,19-triazatetracyclo[11.5.2.0^ {5,7}.0^{16,20}] icosa-1(19),14,16(20), 17-tetraen-4-one]"
3,13 nM,COc1cc(C(=O)N2CC[C@@H](OC)[C@@H](N)C2)cc2nc(-c3cc4ccc5nc4n3CCCC(F)(F)C[C@@H]3C[C@H]3C(=O)N[C@@H]5C)n(C)c12 [Example 857]
4,85 nM,"COc1cc(C(=O)N2CCC[C@@H](N)C2)cc2nc(-c3cc4ccc5nc4n3CCCCCOC(C)(C)C(=O)N[C@@H]5C)n(C)c12 [Example 18, (11~{R})-17-[5-[(3~{R})-3-aminopiperidine-1-carbonyl]-7-methoxy-1-methyl-benzimidazol-2-yl]-8,8,11-trimethyl-7-oxa-1,10,19-triazatricyclo[10.5.2.0^{15,18}]nonadeca-12(19),13,15(18),16-tetraen-9-one]"
5,31 nM,"C[C@H]1NC(=O)[C@@H]2C[C@H]2CCCC(F)(F)Cn2c(-c3nc4cc(C(=O)N5C[C@H](N)[C@@H]6CC[C@H]5C6)cc(F)c4n3[C@@H]3C[C@@H]3C(F)F)cc3ccc1nc32 [Example 756, (2~{R},5~{R},7~{R})-14-[5-[(1~{S},4~{R},5~{R})-4-amino-2-azabicyclo[3.2.1]octane-2-carbonyl]-1-[(1~{R},2~{S})-2-(difluoromethyl)cyclopropyl]-7-fluoro-benzimidazol-2-yl]-11,11-difluoro-2-methyl-3,13,19-triazatetracyclo [11.5.2.0^{5,7}.0^{16,20}] icosa-1(19),14,16(20),17-tetraen-4-one]"
6,40 nM,"COc1cc(C(=O)N2[C@H]3CC[C@@H]2[C@H](N)C3)cc2nc(-c3cc4ccc5nc4n3CCCCCC[C@@H](C)C(=O)N[C@@H]5C)n(C)c12 [Example 136, (8~{R},11~{R})-17-[5-[(1~{R},2~{R},4~{S})-2-amino-7-azabicyclo[2.2.1]heptane-7-carbonyl]-7-methoxy-1-methyl-benzimidazol-2-yl]-8,11-dimethyl-1,10,19-triazatricyclo[10.5.2.0^{15,18}]nonadeca-12(19),13,15(18),16-tetraen-9-one]"
7,277 nM,"COc1cc(C(=O)N2CCC[C@@H](N)C2)cc2nc(-c3cc4ccc5nc4n3CCCCCCNC(=O)c3ncccc3-5)n(C)c12 [Example 46, 17-[5-[(3~{R})-3-aminopiperidine-1-carbonyl]-7-methoxy-1-methyl-benzimidazol-2-yl]-6,9,16,22-tetrazatetracyclo[14.5.2.0^{2,7}.0^{19,23}] tricosa-1(22),2,4,6,17,19(23),20-heptaen-8-one]"
8,86 nM,"COc1cc(C(=O)N2CCC[C@@H](N)C2)cn2nc(-c3cc4ccc5nc4n3CCCCCCCC(=O)N[C@@H]5C)c(C)c12 [Example 26, (11~{R})-17-[6-[(3~{R})-3-aminopiperidine-1-carbonyl]-4-methoxy-3-methyl-pyrazolo[1,5-a]pyridin-2-yl]-11-methyl-1,10,19-triazatricyclo[10.5.2.0^{15,18}]nonadeca-12(19),13,15(18),16-tetraen-9-one]"
9,161 nM,"COc1cc(C(=O)N[C@H]2CNC[C@@H](O)C2)cc2nc(-c3cc4ccc5nc4n3CCCCCCC(C)(C)C(=O)N[C@@H]5C)n(C)c12 [Example 59, ~{N}-[(3~{R},5~{S})-5-hydroxy-3-piperidyl]-7-methoxy-1-methyl-2-[(11~{R})-8,8,11-trimethyl-9-oxo-1,10,19-triazatricyclo[10.5.2.0^{15,18}]nonadeca-12(19),13,15(18),16-tetraen-17-yl]benzimidazole-5-carboxamide]"
10,388 nM,"COc1cc(C(=O)N2CC[C@@H](OC)[C@@H](N)C2)cc2nc(-c3cc4ccc5nc4n3CCCCC[C@@H]3C[C@@H]3C(=O)N[C@@H]5C)n(C)c12 [Example 524, (2~{R},5~{S},7~{R})-14-[5-[(3~{S},4~{R})-3-amino-4-methoxy-piperidine-1-carbonyl]-7-methoxy-1-methyl-benzimidazol-2-yl]-2-methyl-3,13,19-triazatetracyclo[11.5.2.0^ {5,7}.0^{16,20}]icosa-1(19),14,16(20),17-tetraen-4-one]"
11,48 nM,"COc1cc(C(=O)N[C@H]2CNCC[C@@H]2F)cc2nc(-c3cc4ccc5nc4n3CC/C=C\C[C@H]3C[C@H]3C(=O)N[C@@H]5C)n(C)c12 [Example 516, ~{N}-[(3~{S},4~ {S})-4-fluoro-3-piperidyl]-7-methoxy-1-methyl-2-[(2~{R},5~{R},7~ {S},9~{Z})-2-methyl-4-oxo-3,13,19-triazatetracyclo[11.5.2.0^ {5,7}.0^{16,20}]icosa-1(19),9,14,16(20),17-pentaen-14-yl]benzimidazole-5-carboxamide]"
12,20 nM,"COc1cc(C(=O)N2C[C@H](N)[C@@H]3CC[C@H]2C3)cc2nc(-c3cc4ccc5nc4n3CCCCC[C@@H]3C[C@H]3C(=O)N[C@@H]5C)n(C)c12 [Example 444, (2~{R},5~{R},7~{R})-14-[5-[(1~{S},4~{R},5~{R})-4-amino-2-azabicyclo[3.2.1]octane-2-carbonyl]-7-methoxy-1-methyl-benzimidazol-2-yl]-2-methyl-3,13,19-triazatetracyclo[11.5.2.0^{5,7}.0^{16,20}] icosa-1(19),14,16(20),17-tetraen-4-one]"
13,39 nM,"COCCn1c(-c2cc3ccc4nc3n2CCCCC[C@@H]2C[C@H]2C(=O)N[C@@H]4C)nc2cc(C(=O)N[C@H]3CNCC[C@@H]3F)c(F)cc21 [Example 422, 6-fluoro-~{N}-[(4~{S})-4-fluoro-3-piperidyl]-1-(2-methoxyethyl)-2-[(2~{R},5~{R},7~{R})-2-methyl-4-oxo-3,13,19-triazatetracyclo[11.5.2.0^{5,7}.0^{16,20}]icosa-1(18),14,16,19-tetraen-14-yl]benzimidazole-5-carboxamide]"
14,53 nM,"COc1cc(C(=O)N2CCC[C@@H](N)C2)cc2nc(-c3cc4ccc5nc4n3C[C@H]3C[C@@H]3CCCC(C)(C)C(=O)N[C@@H]5C)n(C)c12 [Example 292, (3~{S),5~{S},12~{R})-18-[5-[(3~{R})-3-aminopiperidine-1-carbonyl]-7-methoxy-1-methyl-benzimidazol-2-yl]-9,9,12-trimethyl-1,11,20-triazatetracyclo[11.5.2.0^{3,5}.0^{16,19}] icosa-13(20),14,16(19),17-tetraen-10-one]"
